Read-outs that look alike come from different tables or passages of the source. Starred links: 1 amine or outer side, 2 acyl side, 3 side chain; linkers in the order of their positions; H or OH if unused. Positions of bridges follow the written chain, without caps; N, C: chain ends. Residues, ends and D or L forms follow the SMILES beside them. *: point of attachment. C18 diacid = O=C(O)CCCCCCCCCCCCCCCCC(=O)*; γGlu = O=C(O)[C@H](CCC(=O)[*:2])N[*:1]; AEEA = NCCOCCOCC(=O)O
Test: PK of CNP compounds after i.v. and s.c. administration to rats
Settings: male, Sprague Dawley, in vivo, rat; for clearance: read-out: Cl (L/hr/kg), i.v. administration (converted)
Method: In order to assess the i.v. and s.c. PK/PD profile of CNP compounds of the present invention, formulations of CNP compounds were administered to rats, blood samples taken and exposure and cGMP response measured.
Quantitative plasma analysis of CNP-compounds: Plasma concentrations of CNP compounds were assayed by plasma protein precipitation and analysed by turboflow liquid chromatography mass spectrometry (TF-LC-MS). Calibrators were prepared by spiking either blank rat or minipig plasma with the relevant CNP compound in the range from 0.5 to 2000 nM. Calibrators, plasma blanks or study samples were prepared for TF-LC-MS by protein precipitation by adding three or four volumes of either ethanol or methanol containing 20 nM of internal standard to one volume of sample. For some compounds, formic acid was added to the precipitation reagent (the final concentration was 1% v/v). After the addition of the precipitation reagent, the mixture was centrifuged at 6200 rpm at 4° C. for 30 minutes. After centrifugation, one volume of supernatant was mixed with two volumes of water (with 1% v/v formic acid). The mixture was analysed by TF-LC-MS using a Cyclone turboflow column (0.5×50 mm, ThermoFisher Scientific) and either a XBridge Protein BEH C4 3.5 μm 300 Åor a XBridge Protein BEH C18 3.5 μm 130 Åanalytical column (both were 50×2.1 mm and obtained from Waters). […] The mass spectrometer was operated in positive ionisation mode. A TSQ Altis mass spectrometer (ThermoFisher Scientific) was used as detector in selected reaction monitoring mode (specific transition were optimised for each CNP compound). Linear calibration curves (weighed 1/×2) were used for calculating the concentration in the plasma samples. Quality control samples were included. The deviation between nominal and calculated concentration in the calibrators and quality control samples were below 15%.
Animals and dosing: Groups of 4-6 rats (male, Sprague Dawley, 350 g at arrival, Janvier, France) per compound and route of administration were dosed with a CNP compound formulated either in A) 8 mM sodium phosphate, 250 mM glycerol, 0.007% polysorbate 20, pH 7.4 or B) 5 mM sodium acetate, 250 mM glycerol, 0.007% polysorbate 20, pH 4.0 depending on the respective compound. S.c. dose was 300 nmol/kg, at a concentration of […] resulting in a dosing volume of 0.3 mL/kg, whereas i.v. dose was 100 nmol/kg, at a concentration of […] resulting in a dosing volume of 1 mL/kg.
Sampling: Sublingual blood samples of 250 uL were collected from unanaesthetised rats in EDTA-coated vials (Microvette 600K3E ref #15.1673.100 Sarstedt) at baseline (-1 h before dosing) as well as 5 min (only i.v. dosed groups), 2 h, 6 h, 24 h, 48 h and 72 h (only for exposure analysis) post-dosing. The blood samples were quickly stored on ice and centrifuged (4° C., 8000 RPM, 5 min) within 10 min of collection. Plasma samples of 50 μL were transferred to each micronic tube for either exposure or cGMP analysis, kept on dry ice and stored in a freezer (−20° C.). Rats had access to food (Altromin) and tap water ad libitum.
Analysis: PK parameters were calculated by non-compartment analysis (NCA) using software Phoenix WinNonlin (ver. 8.1 or later, Certara) for each animal. Clearance (Cl) was calculated as: Dose/AUCinf (linear up, log down). […] Bioavailability was calculated as dose normalized AUC's: (AUC(sc)/Dose(sc))/(AUC(iv)/Dose(iv)). Values in the table are means from individual animals (n=4-6 individual animals). The subsequent plots for cGMP plasma concentration versus time are (Y-axis) mean cGMP concentration (n=4-6 individual animals) after IV dosing and (X-axis) nominal plasma sampling time.
Plasma cGMP are reported as the mean.

[1] = iv, i.v., about 100 nmol/kg, read-out: T½ (hr), i.v. administration (converted)

## CC[C@H](C)[C@@H]1NC(=O)[C@H](CCCNC(=N)N)NC(=O)[C@H](CC(=O)O)NC(=O)[C@H](CC(C)C)NC(=O)[C@@H]2CCCN2C(=O)[C@H](CC(C)C)NC(=O)CNC(=O)[C@H](Cc2ccccc2)NC(=O)[C@@H](NC(=O)CNC(=O)[C@H](CO)NC(=O)[C@H](CO)NC(=O)[C@H](CC(C)C)NC(=O)CNC(=O)[C@H](CCCCN)NC(=O)[C@H](CCCCN)NC(=O)[C@H](CCC(N)=O)NC(=O)[C@H](C)NC(=O)CNC(=O)[C@H](CCCCN)NC(=O)[C@H](Cc2ccc(O)cc2)NC(=O)COCCOCCNC(=O)COCCOCCNC(=O)COCCOCCNC(=O)CC[C@H](NC(=O)CC[C@H](NC(=O)CCCCCCCCCCCCCCCCC(=O)O)C(=O)O)C(=O)O)CSSC[C@@H](C(=O)O)NC(=O)CNC(=O)[C@H](CC(C)C)NC(=O)CNC(=O)[C@H](CO)NC(=O)[C@H](CC(C)C)NC(=O)[C@H](CO)NC(=O)CNC1=O [compound 1356] ({C18 diacid-γGlu-γGlu-AEEA-AEEA-AEEA}-YKGAQKKGLSSGCFGLPLDRIGSLSGLGC-OH; disulfide 13-29; C-terminus assumed)
iv, i.v., about 100 nmol/kg
  clearance: 0.0141 L/h/kg
[1]
  half-life: 3.47 h

## CC[C@H](C)[C@@H]1NC(=O)[C@H](CCCNC(=N)N)NC(=O)[C@H](CC(=O)O)NC(=O)[C@H](CC(C)C)NC(=O)[C@@H]2CCCN2C(=O)[C@H](CC(C)C)NC(=O)CNC(=O)[C@H](Cc2ccccc2)NC(=O)[C@@H](NC(=O)CNC(=O)[C@H](CCCCN)NC(=O)[C@H](CO)NC(=O)[C@H](CC(C)C)NC(=O)CNC(=O)[C@H](CCCCN)NC(=O)[C@H](CCCCN)NC(=O)[C@H](CCC(N)=O)NC(=O)[C@H](C)NC(=O)CNC(=O)[C@H](CCC(=O)O)NC(=O)[C@H](Cc2ccc(O)cc2)NC(=O)COCCOCCNC(=O)COCCOCCNC(=O)COCCOCCNC(=O)COCCOCCNC(=O)CC[C@H](NC(=O)CCCCCCCCCCCCCCCCC(=O)O)C(=O)O)CSSC[C@@H](C(=O)O)NC(=O)CNC(=O)[C@H](CC(C)C)NC(=O)CNC(=O)[C@H](CO)NC(=O)[C@H](CC(C)C)NC(=O)[C@H](CO)NC(=O)CNC1=O [compound 1375] ({C18 diacid-γGlu-AEEA-AEEA-AEEA-AEEA}-YEGAQKKGLSKGCFGLPLDRIGSLSGLGC-OH; disulfide 13-29; C-terminus assumed)
iv, i.v., about 100 nmol/kg
  clearance: 0.0057 L/h/kg
[1]
  half-life: 9.66 h

## CC[C@H](C)[C@@H]1NC(=O)[C@H](CCCNC(=N)N)NC(=O)[C@H](CC(=O)O)NC(=O)[C@H](CC(C)C)NC(=O)[C@@H]2CCCN2C(=O)[C@H](CC(C)C)NC(=O)CNC(=O)[C@H](Cc2ccccc2)NC(=O)[C@@H](NC(=O)CNC(=O)[C@H](CCCCN)NC(=O)[C@H](CO)NC(=O)CNC(=O)CNC(=O)[C@H](CCCCN)NC(=O)[C@H](CCCCN)NC(=O)[C@H](CCC(N)=O)NC(=O)[C@H](C)NC(=O)CNC(=O)[C@H](CCC(=O)O)NC(=O)[C@H](Cc2ccc(O)cc2)NC(=O)COCCOCCNC(=O)COCCOCCNC(=O)CC[C@H](NC(=O)CCCCCCCCCCCCCCCCC(=O)O)C(=O)O)CSSC[C@@H](C(=O)O)NC(=O)CNC(=O)[C@H](CC(C)C)NC(=O)CNC(=O)[C@H](CO)NC(=O)[C@H](CC(C)C)NC(=O)[C@H](CO)NC(=O)CNC1=O [compound 1377] ({C18 diacid-γGlu-AEEA-AEEA}-YEGAQKKGGSKGCFGLPLDRIGSLSGLGC-OH; disulfide 13-29)
iv, i.v., about 100 nmol/kg
  clearance: 0.00747 L/h/kg
[1]
  half-life: 6.29 h

## CC[C@H](C)[C@@H]1NC(=O)[C@H](CCCNC(=N)N)NC(=O)[C@H](CC(=O)O)NC(=O)[C@H](CC(C)C)NC(=O)[C@@H]2CCCN2C(=O)[C@H](CC(C)C)NC(=O)CNC(=O)[C@H](Cc2ccccc2)NC(=O)[C@@H](NC(=O)CNC(=O)[C@H](CO)NC(=O)[C@H](CO)NC(=O)[C@H](CC(C)C)NC(=O)CNC(=O)[C@H](CCCCN)NC(=O)[C@H](CCCCN)NC(=O)[C@H](CCC(N)=O)NC(=O)[C@H](C)NC(=O)CNC(=O)[C@H](CCC(=O)O)NC(=O)[C@H](Cc2ccc(O)cc2)NC(=O)[C@H](CO)NC(=O)[C@H](CCCNC(=N)N)NC(=O)[C@H](C)NC(=O)[C@H](CCC(N)=O)NC(=O)[C@@H]2CCCN2C(=O)[C@H](Cc2c[nH]cn2)NC(=O)[C@H](CCC(=O)O)NC(=O)[C@H](CCC(N)=O)NC(=O)COCCOCCNC(=O)COCCOCCNC(=O)CC[C@H](NC(=O)CCCCCCCCCCCCCCCCC(=O)O)C(=O)O)CSSC[C@@H](C(=O)O)NC(=O)CNC(=O)[C@H](CC(C)C)NC(=O)CNC(=O)[C@H](CO)NC(=O)[C@H](CC(C)C)NC(=O)[C@H](CO)NC(=O)CNC1=O [compound 1379] ({C18 diacid-γGlu-AEEA-AEEA}-QEHPQARSYEGAQKKGLSSGCFGLPLDRIGSLSGLGC-OH; disulfide 21-37; C-terminus assumed)
iv, i.v., about 100 nmol/kg
  clearance: 0.0051 L/h/kg
[1]
  half-life: 9.8 h

## CC[C@H](C)[C@@H]1NC(=O)[C@H](CCCNC(=N)N)NC(=O)[C@H](CC(=O)O)NC(=O)[C@H](CC(C)C)NC(=O)[C@@H]2CCCN2C(=O)[C@H](CC(C)C)NC(=O)CNC(=O)[C@H](Cc2ccccc2)NC(=O)[C@@H](NC(=O)CNC(=O)[C@H](CO)NC(=O)[C@H](CO)NC(=O)[C@H](CC(C)C)NC(=O)CNC(=O)[C@H](CCCCN)NC(=O)[C@H](CCCCN)NC(=O)[C@H](CCC(N)=O)NC(=O)[C@H](C)NC(=O)CNC(=O)[C@H](CCCCN)NC(=O)[C@H](Cc2ccc(O)cc2)NC(=O)[C@H](CCCCN)NC(=O)[C@H](CCCNC(=N)N)NC(=O)[C@H](C)NC(=O)CC[C@H](NC(=O)CC[C@H](NC(=O)CC[C@H](NC(=O)CC[C@H](NC(=O)CCCCCCCCCCCCCCCCC(=O)O)C(=O)O)C(=O)O)C(=O)O)C(=O)O)CSSC[C@@H](C(=O)O)NC(=O)CNC(=O)[C@H](CC(C)C)NC(=O)CNC(=O)[C@H](CO)NC(=O)[C@H](CC(C)C)NC(=O)[C@H](CO)NC(=O)CNC1=O [compound 1386] ({C18 diacid-γGlu-γGlu-γGlu-γGlu}-ARKYKGAQKKGLSSGCFGLPLDRIGSLSGLGC-OH; disulfide 16-32)
iv, i.v., about 100 nmol/kg
  clearance: 0.00605 L/h/kg
[1]
  half-life: 8.16 h

## CC[C@H](C)[C@@H]1NC(=O)[C@H](CCCNC(=N)N)NC(=O)[C@H](CC(=O)O)NC(=O)[C@H](CC(C)C)NC(=O)[C@@H]2CCCN2C(=O)[C@H](CC(C)C)NC(=O)CNC(=O)[C@H](Cc2ccccc2)NC(=O)[C@@H](NC(=O)CNC(=O)[C@H](CCCCN)NC(=O)[C@H](CO)NC(=O)[C@@H](NC(=O)CNC(=O)[C@@H](NC(=O)[C@H](Cc2c[nH]cn2)NC(=O)[C@H](CCC(N)=O)NC(=O)[C@H](C)NC(=O)CNC(=O)[C@H](Cc2c[nH]cn2)NC(=O)[C@H](Cc2ccc(O)cc2)NC(=O)[C@H](CCCCN)NC(=O)[C@H](CCCNC(=N)N)NC(=O)[C@H](C)NC(=O)COCCOCCNC(=O)COCCOCCNC(=O)CC[C@H](NC(=O)CC[C@H](NC(=O)CC[C@H](NC(=O)CCCCCCCCCCCCCCCCC(=O)O)C(=O)O)C(=O)O)C(=O)O)[C@@H](C)O)C(C)C)CSSC[C@@H](C(=O)O)NC(=O)CNC(=O)[C@H](CC(C)C)NC(=O)CNC(=O)[C@H](CO)NC(=O)[C@H](CC(C)C)NC(=O)[C@H](CO)NC(=O)CNC1=O [compound 1420] ({C18 diacid-γGlu-γGlu-γGlu-AEEA-AEEA}-ARKYHGAQHTGVSKGCFGLPLDRIGSLSGLGC-OH; disulfide 16-32)
iv, i.v., about 100 nmol/kg
  clearance: 0.00764 L/h/kg
[1]
  half-life: 8.34 h
sc, s.c. bioavailability, about 300 nmol/kg, read-out: F (%), s.c. administration
  bioavailability: 49.7%
sc, s.c., about 300 nmol/kg, read-out: T½ (hr), s.c. administration (converted)
  half-life: 9.47 h
